Results on 23 compounds are retold here after patent US20040044008A1, “Use of therapeutic benzamide derivatives” (priority 2000, published 2004).

As a reminder, the melting point is the temperature of the solid-liquid transition. In turn, `N#Cc1cccc(CN2CCN(c3ccc(NC(=O)c4ccc(Cl)cc4-c4ccc(C(F)(F)F)cc4)cc3)CC2)c1` [Example 10, 5-Chloro-4′-trifluoromethyl-biphenyl-2-carboxylic acid [4-[4-(3-cyano-benzyl)-piperazin-1-yl]-phenyl]-amide] displayed a melting point of 164 to 165 °C.
The compound `COc1cccc(C(=O)Nc2ccc(N3CCN(Cc4cccc(-c5nc(C)no5)c4)CC3)cc2)c1-c1ccc(C(C)C)cc1` [Example 74, 4′-Isopropyl-6-methoxy-biphenyl-2-carboxylic acid (4-(4-(3-(3-methyl-[1,2,4]oxadiazol-5-yl)-benzyl)-piperazine-1-yl)-phenyl)-amide] had a melting point of 180 to 182 °C.
Consider `O=C(Nc1ccc(N2CCN(CCCO)CC2)cc1)c1ccccc1-c1ccc(C(F)(F)F)cc1` [Example 44, 4′-Trifluoromethyl-biphenyl-2-carboxylic acid [4-(4-(3-hydroxy-propyl)-piperazin-1-yl]-phenyl]-amide], for which the melting point is 208 to 210 °C.
For `O=C(Nc1ccc(N2CCN(Cc3nccs3)CC2)cc1)c1ccccc1-c1ccc(C(F)(F)F)cc1` (hydrate or solvate) [Example 59, 4′-Trifluoromethyl-biphenyl-2-carboxylic acid [4-(4-thiazol-2-ylmethyl-piperazin-1-yl)-phenyl]-amide], the melting point was 187 to 189 °C.
Consider `O=C(Nc1ccc(N2CCN(Cc3cccc(-c4noc(C(F)(F)F)n4)c3)CC2)cc1)c1ccccc1-c1ccc(C(F)(F)F)cc1` [Example 75, 4′-Trifluoromethyl-biphenyl-2-carboxylic acid (4-{4-[3-(5-trifluoromethyl-[1,2,4]oxadiazol-3-yl)-benzyl]-piperazin-1-yl}-phenyl)-amide], for which the melting point was 188 to 190 °C.
Under `COc1ccc(C(=O)Nc2ccc(N3CCN(Cc4cccc(C#N)c4)CC3)cc2)c(-c2ccccc2)c1` [Example 12, 5-Methoxy-biphenyl-2-carboxylic acid [4-[4-(3-cyano-benzyl)-piperazin-1-yl]-phenyl]-amide] stands 159 to 161 °C; under `CCOC(=O)CN1CCN(c2ccc(NC(=O)c3ccccc3-c3ccc(C(F)(F)F)cc3)cc2)CC1` [Example 42, 4′-Trifluoromethyl-biphenyl-2-carboxylic acid [4-(4-ethoxycarbonylmethyl-piperazin-1-yl)-phenyl]-amide], 167 to 169 °C; under `N#Cc1cccc(CN2CCN(c3ccc(NC(=O)c4ccccc4-c4cccc(C(F)(F)F)c4)cc3)CC2)c1` [Example 22, 3′-Trifluoromethyl-biphenyl-2-carboxylic acid [4-[4-(3-cyano-benzyl)-piperazin-1-yl]-phenyl]-amide], 117 to 121 °C.
For `O=C(Nc1ccc(N2CCN(Cc3ccccn3)CC2)cc1)c1ccccc1-c1ccc(C(F)(F)F)cc1` (hydrate or solvate) [Example 57, 4′-Trifluoromethyl-biphenyl-2-carboxylic acid [4-(4-pyridin-2-ylmethyl-piperazin-1-yl)-phenyl]-amide], the melting point is 168 to 170 °C.
Then `O=C(Nc1ccc(N2CCN(Cc3ccncc3)CC2)cc1)c1ccccc1-c1ccc(C(F)(F)F)cc1`, with 194 to 196 °C.
Then `CC(C)c1ccc(-c2cc(Cl)ccc2C(=O)Nc2ccc(N3CCN(Cc4cccc(C#N)c4)CC3)cc2)cc1` [Example 7, 5-Chloro-4′-isopropyl-biphenyl-2-carboxylic acid [4-[4-(3-cyano-benzyl)-piperazin-1-yl]-phenyl]-amide], with 188 to 190 °C; and `COc1cccc(C(=O)Nc2ccc(N3CCN(Cc4cccc(C#N)c4)CC3)cc2)c1OCCC1CCCCC1` [Example 31, N-[4-[4-(3-Cyano-benzyl)-piperazin-1-yl]-phenyl]-2-(2-cyclohexyl-ethoxy)-3-methoxy-benzamide], with 102 to 104 °C.
Then `COc1cccc(C(=O)Nc2ccc(N3CCN(Cc4cccc(C#N)c4)CC3)cc2)c1OCCc1ccccc1` [Example 30, N-[4-[4-(3-Cyano-benzyl)-piperazin-1-yl]-phenyl]-3-methoxy-2-phenethyloxy-benzamide], with 140 to 142 °C; and `Cc1cccc(C(=O)Nc2ccc(N3CCN(CC(N)=O)CC3)cc2)c1-c1ccc(C(F)(F)F)cc1` [Example 40, 6-Methyl4′-trifluoromethyl-biphenyl-2-carboxylic acid [4-(4-carbamoylmethyl-piperazin-1-yl)-phenyl]-amide], with 196 to 198 °C.
As for `O=C(Nc1ccc(N2CCN(Cc3ccc(F)cc3)CC2)cc1)c1ccccc1-c1ccc(C(F)(F)F)cc1` [Example 52, 4′-Trifluoromethyl-biphenyl-2-carboxylic acid [4-[4-(4-fluoro-benzyl)-piperazin-1-yl]-phenyl]-amide], the melting point is 198 to 200 °C.
Under `COc1cccc(C(=O)Nc2ccc(N3CCN(Cc4ccc[nH]4)CC3)cc2)c1-c1ccc(C(C)C)cc1` [Example 68, 4′-Isopropyl-6-methoxy-biphenyl-2-carboxylic acid [4-(4-(1H-pyrrol-2-ylmethyl)-piperazin-1-yl)-phenyl]-amide] stands 195 to 197 °C; under `CCc1ccc(-c2ccccc2C(=O)Nc2ccc(N3CCN(Cc4cccc(C#N)c4)CC3)cc2)cc1` [Example 20, 4′-Ethyl-biphenyl-2-carboxylic acid [4-[4-(3-cyano-benzyl)-piperazin-1-yl]-phenyl]-amide], 118 to 122 °C.
Under `N#Cc1cccc(CN2CCN(c3ccc(NC(=O)c4ccccc4-n4cccc4)cc3)CC2)c1` [Example 85, N-{4-[4-(3-Cyano-benzyl)-piperazin-1-yl]-phenyl}-2-pyrrol-1-yl-benzamide] stands 174 °C.
Turning to `O=C(Nc1ccc(N2CCN(Cc3cccc(F)c3)CC2)cc1)c1ccccc1-c1ccc(C(F)(F)F)cc1` (hydrate or solvate) [Example 53, 4′-Trifluoromethyl-biphenyl-2-carboxylic acid [4-[4-(3-fluoro-benzyl)-piperazin-1-yl]-phenyl]-amide], the melting point lay within 189 to 190.5 °C.
Under `CC(=O)c1cccc(CN2CCN(c3ccc(NC(=O)c4ccccc4-c4ccc(C(F)(F)F)cc4)cc3)CC2)c1` [Example 66, 4′-Trifluoromethyl-biphenyl-2-carboxylic acid [4-(4-(3-acetyl-benzyl)-piperazin-1-yl)-phenyl]-amide] stands 181 to 183 °C; under `O=C(Nc1ccc(N2CCN(Cc3ccc4c(c3)OCO4)CC2)cc1)c1ccccc1-c1ccc(C(F)(F)F)cc1` [Example 48, 4′-Trifluoromethyl-biphenyl-2-carboxylic acid [4-(4-(3,4-methylenedioxy-benzyl)-piperazin-1-yl)-phenyl]-amide], 189 to 191 °C; under `O=C(Nc1ccc(N2CCN(Cc3cccs3)CC2)cc1)c1ccccc1-c1ccc(C(F)(F)F)cc1` [Example 70, 4′-Trifluoromethyl-biphenyl-2-carboxylic acid [4-(4-thiophen-2-ylmethyl-piperazin-1-yl)-phenyl]-amide], 181 to 183 °C.
Then `Cc1ccc(C(=O)Nc2ccc(N3CCN(Cc4cccc(C#N)c4)CC3)cc2)c(-c2ccc(C(F)(F)F)cc2)c1` [Example 9, 5-Methyl-4′-trifluoromethyl-biphenyl-2-carboxylic acid [4-[4-(3-cyano-benzyl)-piperazin-1-yl]-phenyl]-amide], with 166 to 168 °C.
